pIC50: −log10 of the molar value. Peptide text beside a SMILES is read from it.
Biological target: HLA-A*0201 (Homo sapiens, UniProt P04439, D140Y/D185E/D98H/E176V/E277Q/G131W/G231S/I119V/I121R/I166T/I218V/L300P/L318F/N151K/N90K/P208A/P217A/Q86G/Q94H/R138H/R169H/T345S)
Assay: HLA-A*0201 peptide-binding assay

Row | SMILES | pIC50
1 | CC(C)C[C@H](NC(=O)[C@H](CO)NC(=O)[C@H](CCCNC(=N)N)NC(=O)[C@@H](NC(=O)[C@H](Cc1ccc(O)cc1)NC(=O)[C@H](Cc1ccc(OP(=O)(O)O)cc1)NC(=O)[C@H](CC(=O)O)NC(=O)[C@H](CC(C)C)NC(=O)CN)C(C)C)C(=O)O [GLDpYYVRSL] (HELM PEPTIDE1{G.L.D.[O=C([C@H](Cc1ccc(OP(=O)(O)O)cc1)N[*:1])[*:2]].Y.V.R.S.L}$$$$V2.0) | 6.68
2 | CC(C)C[C@H](NC(=O)[C@H](CO)NC(=O)[C@H](CCCNC(=N)N)NC(=O)[C@@H](NC(=O)[C@H](Cc1ccc(O)cc1)NC(=O)[C@H](COP(=O)(O)O)NC(=O)[C@H](CC(=O)O)NC(=O)[C@H](CC(C)C)NC(=O)CN)C(C)C)C(=O)O [GLDpSYVRSL] (HELM PEPTIDE1{G.L.D.[O=C([C@H](COP(=O)(O)O)N[*:1])[*:2]].Y.V.R.S.L}$$$$V2.0) | 7.24
3 | CC(C)C[C@H](NC(=O)[C@H](CO)NC(=O)[C@H](CCCNC(=N)N)NC(=O)[C@@H](NC(=O)[C@H](Cc1ccc(O)cc1)NC(=O)[C@@H](NC(=O)[C@H](CC(=O)O)NC(=O)[C@H](CC(C)C)NC(=O)CN)[C@@H](C)OP(=O)(O)O)C(C)C)C(=O)O [GLDpTYVRSL] (HELM PEPTIDE1{G.L.D.[C[C@@H](OP(=O)(O)O)[C@H](N[*:1])C(=O)[*:2]].Y.V.R.S.L}$$$$V2.0) | 7.17

From paper PMC2213507 (The Journal of Experimental Medicine, 2000)
